Measured values published in US10870647B2, “Imidazopyridine derivative, method for preparing same, and pharmaceutical composition containing same as active ingredient for preventing or treating cancer” (DAEGU-GYEONGBUK MEDICAL INNOVATION FOUNDATION, priority 2016, dated 2020).

Assays:
Test in all cases: Kinase selectivity, scanMAX Kinase assay panel (DiscoverX), % control at 1 uM
Assay type in all cases: binding
[1] = molecular target: T1, scanMAX Kinase assay panel (Homo sapiens, UniProt Q8IYT8); conditions: ULK2; 1 uM; read-out: Percent Control (%)
T1 construct: purchased DiscoverX
T1 sequence (Q8IYT8 1-1036): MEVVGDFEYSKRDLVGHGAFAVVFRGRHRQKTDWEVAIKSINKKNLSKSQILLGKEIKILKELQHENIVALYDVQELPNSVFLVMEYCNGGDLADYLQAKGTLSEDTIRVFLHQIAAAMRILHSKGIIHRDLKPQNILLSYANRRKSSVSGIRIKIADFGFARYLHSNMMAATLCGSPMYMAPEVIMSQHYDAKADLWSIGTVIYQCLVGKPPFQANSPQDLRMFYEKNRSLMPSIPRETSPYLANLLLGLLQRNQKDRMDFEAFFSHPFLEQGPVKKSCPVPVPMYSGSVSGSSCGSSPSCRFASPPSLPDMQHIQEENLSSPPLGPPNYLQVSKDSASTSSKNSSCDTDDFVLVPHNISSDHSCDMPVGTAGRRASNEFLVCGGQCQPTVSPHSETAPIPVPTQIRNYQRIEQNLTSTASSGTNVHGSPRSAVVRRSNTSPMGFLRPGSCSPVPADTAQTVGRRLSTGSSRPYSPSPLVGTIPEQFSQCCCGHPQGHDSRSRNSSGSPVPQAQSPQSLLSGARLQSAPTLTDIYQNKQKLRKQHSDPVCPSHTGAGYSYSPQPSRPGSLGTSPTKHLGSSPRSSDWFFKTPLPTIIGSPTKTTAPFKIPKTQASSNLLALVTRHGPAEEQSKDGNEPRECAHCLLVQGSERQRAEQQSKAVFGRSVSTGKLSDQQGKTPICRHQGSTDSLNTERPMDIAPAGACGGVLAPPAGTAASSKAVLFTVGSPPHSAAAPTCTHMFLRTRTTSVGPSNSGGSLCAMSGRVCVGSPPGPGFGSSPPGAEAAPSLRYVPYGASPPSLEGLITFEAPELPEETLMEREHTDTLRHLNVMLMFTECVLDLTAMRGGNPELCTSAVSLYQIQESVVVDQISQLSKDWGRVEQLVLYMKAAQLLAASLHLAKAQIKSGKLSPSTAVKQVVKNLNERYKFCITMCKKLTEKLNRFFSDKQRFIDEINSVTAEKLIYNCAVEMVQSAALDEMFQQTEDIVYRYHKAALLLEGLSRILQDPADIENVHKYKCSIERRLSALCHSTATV
Summary of the method: (§1)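 Read-out is percent of control, derived from the signal with compound relative to positive and negative controls: (compound − positive)/(negative − positive) × 100. Each enzyme received test drug at 1 uM in DMSO, and values under 35% count as active.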

[2] = molecular target: T2, scanMAX Kinase assay panel (Homo sapiens, UniProt P07949, M918T); conditions: RET (M918T); 1 uM; read-out: Percent Control (%)
T2 construct: purchased DiscoverX
Summary of the method: as §1

[3] = molecular target: T3, scanMAX Kinase assay panel (Homo sapiens, UniProt P51956); conditions: NEK3; 1 uM; read-out: Percent Control (%)
T3 construct: purchased DiscoverX
T3 sequence (P51956 1-506): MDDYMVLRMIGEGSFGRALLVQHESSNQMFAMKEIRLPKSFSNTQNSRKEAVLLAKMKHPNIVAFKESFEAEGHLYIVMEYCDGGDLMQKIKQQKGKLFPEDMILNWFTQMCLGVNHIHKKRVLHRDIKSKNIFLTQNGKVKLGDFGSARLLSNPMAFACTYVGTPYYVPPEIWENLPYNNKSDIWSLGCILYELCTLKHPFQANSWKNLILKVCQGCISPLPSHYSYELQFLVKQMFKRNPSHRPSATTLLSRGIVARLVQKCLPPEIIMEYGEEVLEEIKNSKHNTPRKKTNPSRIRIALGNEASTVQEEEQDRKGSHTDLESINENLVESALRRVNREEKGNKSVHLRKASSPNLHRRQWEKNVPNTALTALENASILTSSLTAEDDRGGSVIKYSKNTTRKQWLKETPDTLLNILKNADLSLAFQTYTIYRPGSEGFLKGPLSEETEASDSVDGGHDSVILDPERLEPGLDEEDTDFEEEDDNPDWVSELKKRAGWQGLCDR
Summary of the method: as §1

[4] = molecular target: T4, scanMAX Kinase assay panel (Homo sapiens, UniProt Q8NFD2); conditions: ANKK1; 1 uM; read-out: Percent Control (%)
T4 construct: purchased DiscoverX
T4 sequence (Q8NFD2 1-765): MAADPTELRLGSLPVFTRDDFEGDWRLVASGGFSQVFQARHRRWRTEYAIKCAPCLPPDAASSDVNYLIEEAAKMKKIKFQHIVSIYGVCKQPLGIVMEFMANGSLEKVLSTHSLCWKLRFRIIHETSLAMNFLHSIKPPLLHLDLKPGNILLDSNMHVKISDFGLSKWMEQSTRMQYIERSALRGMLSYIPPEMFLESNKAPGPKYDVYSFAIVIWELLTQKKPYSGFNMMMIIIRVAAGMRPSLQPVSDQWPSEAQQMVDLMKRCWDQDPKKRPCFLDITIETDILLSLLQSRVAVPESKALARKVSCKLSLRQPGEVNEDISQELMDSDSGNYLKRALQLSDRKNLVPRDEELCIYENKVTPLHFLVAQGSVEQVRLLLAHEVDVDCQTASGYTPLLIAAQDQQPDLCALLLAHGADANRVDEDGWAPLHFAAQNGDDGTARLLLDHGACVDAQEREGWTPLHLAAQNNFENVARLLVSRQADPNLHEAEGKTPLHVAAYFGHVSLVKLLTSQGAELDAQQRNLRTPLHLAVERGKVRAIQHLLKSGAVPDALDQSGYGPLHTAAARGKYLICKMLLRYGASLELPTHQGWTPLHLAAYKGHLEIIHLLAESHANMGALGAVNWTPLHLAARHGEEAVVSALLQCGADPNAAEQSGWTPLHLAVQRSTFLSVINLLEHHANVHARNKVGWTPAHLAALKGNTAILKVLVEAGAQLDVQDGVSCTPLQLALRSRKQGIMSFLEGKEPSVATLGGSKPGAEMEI
Summary of the method: as §1

[5] = molecular target: T5, scanMAX Kinase assay panel (Homo sapiens, UniProt Q9Y4K4); conditions: MAP4K5; 1 uM; read-out: Percent Control (%)
T5 construct: purchased DiscoverX
Summary of the method: as §1

[6] = molecular target: T6, scanMAX Kinase assay panel (Homo sapiens, UniProt P49761); conditions: CLK3; 1 uM; read-out: Percent Control (%)
T6 construct: purchased DiscoverX
Summary of the method: as §1

T6 sequence (P49761 whole entry): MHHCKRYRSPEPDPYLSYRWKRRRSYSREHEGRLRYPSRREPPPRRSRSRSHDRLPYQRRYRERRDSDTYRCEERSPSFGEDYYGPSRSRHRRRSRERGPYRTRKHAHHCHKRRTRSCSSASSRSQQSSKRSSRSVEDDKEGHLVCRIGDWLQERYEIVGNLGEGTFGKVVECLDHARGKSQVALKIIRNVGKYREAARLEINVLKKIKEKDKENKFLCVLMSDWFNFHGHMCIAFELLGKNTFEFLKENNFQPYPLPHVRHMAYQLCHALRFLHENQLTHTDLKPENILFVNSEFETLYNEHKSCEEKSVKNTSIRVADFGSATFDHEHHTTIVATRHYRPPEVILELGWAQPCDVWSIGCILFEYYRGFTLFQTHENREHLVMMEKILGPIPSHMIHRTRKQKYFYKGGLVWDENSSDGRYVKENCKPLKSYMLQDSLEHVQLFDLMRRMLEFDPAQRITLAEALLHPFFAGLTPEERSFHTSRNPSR
T2 sequence (P07949 29-1114 M918T): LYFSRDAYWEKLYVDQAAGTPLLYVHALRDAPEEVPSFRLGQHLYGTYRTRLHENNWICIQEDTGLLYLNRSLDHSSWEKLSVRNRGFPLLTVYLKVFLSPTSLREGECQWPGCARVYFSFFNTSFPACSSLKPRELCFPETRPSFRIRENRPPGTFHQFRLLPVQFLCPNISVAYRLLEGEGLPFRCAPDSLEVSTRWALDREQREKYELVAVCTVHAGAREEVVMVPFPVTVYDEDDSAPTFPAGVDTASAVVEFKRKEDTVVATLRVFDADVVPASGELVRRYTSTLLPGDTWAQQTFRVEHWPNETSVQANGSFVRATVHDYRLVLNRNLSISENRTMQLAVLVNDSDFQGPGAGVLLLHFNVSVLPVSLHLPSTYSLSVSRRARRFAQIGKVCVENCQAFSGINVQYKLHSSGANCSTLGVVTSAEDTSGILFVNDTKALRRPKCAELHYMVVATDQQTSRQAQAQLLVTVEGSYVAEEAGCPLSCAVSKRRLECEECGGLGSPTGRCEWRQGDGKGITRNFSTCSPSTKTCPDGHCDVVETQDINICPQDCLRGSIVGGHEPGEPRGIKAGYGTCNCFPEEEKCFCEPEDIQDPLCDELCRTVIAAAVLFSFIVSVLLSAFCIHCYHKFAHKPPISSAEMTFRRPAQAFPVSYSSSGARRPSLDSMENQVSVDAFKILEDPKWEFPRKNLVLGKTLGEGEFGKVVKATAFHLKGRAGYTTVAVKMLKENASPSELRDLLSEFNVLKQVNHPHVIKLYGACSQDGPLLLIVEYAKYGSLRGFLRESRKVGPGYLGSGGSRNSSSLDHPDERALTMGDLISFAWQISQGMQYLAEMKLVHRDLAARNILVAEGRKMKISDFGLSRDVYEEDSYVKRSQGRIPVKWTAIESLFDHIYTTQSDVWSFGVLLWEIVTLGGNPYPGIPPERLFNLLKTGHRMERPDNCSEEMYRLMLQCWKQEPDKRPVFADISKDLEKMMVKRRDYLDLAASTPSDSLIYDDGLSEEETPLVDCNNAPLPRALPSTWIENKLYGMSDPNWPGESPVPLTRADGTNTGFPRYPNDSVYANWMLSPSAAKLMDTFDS
T5 sequence (Q9Y4K4 whole entry): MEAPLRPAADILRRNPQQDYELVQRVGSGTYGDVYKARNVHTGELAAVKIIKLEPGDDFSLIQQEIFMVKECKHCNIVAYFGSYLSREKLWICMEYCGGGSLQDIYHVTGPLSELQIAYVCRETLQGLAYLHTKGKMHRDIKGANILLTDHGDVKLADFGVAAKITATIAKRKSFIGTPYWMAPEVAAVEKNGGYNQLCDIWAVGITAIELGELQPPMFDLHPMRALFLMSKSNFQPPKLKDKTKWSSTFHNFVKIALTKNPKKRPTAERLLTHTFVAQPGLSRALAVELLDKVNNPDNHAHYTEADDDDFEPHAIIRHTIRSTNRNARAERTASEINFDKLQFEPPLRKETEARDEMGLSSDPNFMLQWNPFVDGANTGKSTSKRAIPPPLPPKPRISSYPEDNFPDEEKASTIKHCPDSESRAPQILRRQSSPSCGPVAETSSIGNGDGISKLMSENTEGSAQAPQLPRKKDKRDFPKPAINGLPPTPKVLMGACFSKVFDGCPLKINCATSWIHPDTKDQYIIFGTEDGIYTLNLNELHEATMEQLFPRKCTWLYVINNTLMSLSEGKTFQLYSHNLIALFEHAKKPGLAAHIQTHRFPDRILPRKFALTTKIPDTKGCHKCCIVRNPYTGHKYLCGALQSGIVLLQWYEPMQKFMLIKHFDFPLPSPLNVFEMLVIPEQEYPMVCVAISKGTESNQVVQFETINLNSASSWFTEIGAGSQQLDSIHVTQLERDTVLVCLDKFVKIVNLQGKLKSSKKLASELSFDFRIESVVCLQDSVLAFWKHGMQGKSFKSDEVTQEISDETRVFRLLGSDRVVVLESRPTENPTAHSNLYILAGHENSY

| SMILES | remaining binding at 1 µM [1] [%] | remaining binding at 1 µM [2] [%] | remaining binding at 1 µM [3] [%] | remaining binding at 1 µM [4] [%] | remaining binding at 1 µM [5] [%] | remaining binding at 1 µM [6] [%] |
| --- | --- | --- | --- | --- | --- | --- |
| Cc1ccc(NC(=O)C2(C(=O)Nc3ccc(F)cc3)CC2)cc1C#Cc1cnc2c(Nc3cnn(C(C)C)c3)cccn12 [Example 78] | 90 | 100 | 96 | 97 | 82 | 100 |
| Cc1cn(-c2cc(NC(=O)c3ccc(C)c(C#Cc4cnc5c(Nc6cnn(C)c6)cccn45)c3)cc(C(F)(F)F)c2)cn1 [Example 12, 4-methyl-N-(3-(4-methyl-1H-imidazol-1-yl)-5-(trifluoromethyl)phenyl)-3-((8-((1-methyl-1H-pyrazol-4-yl)amino)imidazo[1,2-a]pyridin-3-yl)ethynyl)benzamide] | 100 | 0 | 86 | 100 | 12 | 100 |
| Cc1ccc(C(=O)Nc2ccc(CN3CCN(C)CC3)c(C(F)(F)F)c2)cc1C#Cc1cnc2c(Nc3cnn(C)c3)cccn12 [Example 1, 4-methyl-3-((8-((1-methyl-1H-pyrazol-4-yl)amino)imidazo[1,2-a]pyridin-3-yl)ethynyl)-N-(4-((4-methylpiperazin-1-yl)methyl)-3-(trifluoromethyl)phenyl)benzamide] | 62 | 0 | 64 | 4 | 1 | 48 |
